From patent US20240123080A1, “CYTOTOXIC COMPOUNDS AND CONJUGATES THEREOF” (Seagen Inc., priority 2022, published 2024)
*1 amine or outer side, *2 acyl side, *3 side chain or, on linkers, in order; H or OH if unused. Where a SMILES comes first, the peptide text is derived from it. [ ]: non-standard residue; d: D form. The star is where a group is joined. Dolaproine = CO[C@@H]([C@@H]1CCCN1)[C@@H](C)C(=O)O; Dil = CC[C@H](C)[C@H](NC)[C@@H](CC(=O)O)OC; X11 = C[S+]([O-])NC[C@H](N[*:1])C(=O)[*:2]; Met(O2) = CS(=O)(=O)CC[C@H](N)C(=O)O; X10 = C[C@H]1OC(=O)N[C@@H]1C(=O)*; Hyp = O=C(O)[C@@H]1C[C@@H](O)CN1; Phe(ol) = N[C@H](CO)Cc1ccccc1; X4 = CN1C(=O)OC(C)(C)C1C(=O)*; X5 = O=C1N[C@H](C(=O)*)CO1; X7 = O=C1NC(C(=O)*)CCO1; Dap = NC[C@H](N)C(=O)O; Glycolyl = O=C(CO)*; Ms = CS(=O)(=O)*

What was measured:
Assay in all cases: In vitro cytotoxicity, cell proliferation assay (CellTiter-Glo, 96 h)
Assay type in all cases: cell-based
[1] = test system: DEL ALCL; details: auristatin free drug
Description: (§1) The cytotoxicity of free drugs and drug conjugates were measured by a cell proliferation assay employing the protocol described in Promega Corp. Technical Bulletin TB288; and Mendoza et al., 2002, Cancer Res. 62:5485-5488), the methods of which are specifically incorporated by reference herein. Briefly, an aliquot of 40 μl of cell culture containing about 400 cells in medium is deposited in each well of a 384-well, opaque-walled plate. A 10 μL aliquot of free drug or drug conjugate is added to the experimental wells and incubated for 96 h and are then equilibrated to room temperature for approximately 30 minutes whereupon a volume of CellTiter-Glo™ reagent equal to the volume of cell culture medium present in each well is added. The contents are mixed for 2 minutes on an orbital shaker to induce cell lysis and the plate is incubated at room temperature for 10 minutes to stabilize the luminescence signal for recordation.

[2] = test system: Karpas299 NHL; details: Homo sapiens, KARPAS-299, auristatin free drug
Description: as §1

[3] = test system: L540cy HL; details: auristatin free drug
Description: as §1

Structure (SMILES)	IC50 [1] [nM]	IC50 [2] [nM]	IC50 [3] [nM]
CC[C@H](C)[C@@H]([C@@H](CC(=O)N1CCC[C@H]1[C@H](OC)[C@@H](C)C(=O)NCCc1ccccc1)OC)N(C)C(=O)[C@@H](NC(=O)[C@@H]1COC(=O)N1C)C(C)C [Example 38]	148	> 1000	512
CC[C@H](C)[C@@H]([C@@H](CC(=O)N1CCC[C@H]1[C@H](OC)[C@@H](C)C(=O)N[C@@H](Cc1ccccc1)c1nccs1)OC)N(C)C(=O)[C@@H](NC(=O)[C@@H]1COC(=O)N1C)C(C)C [Example 39]	512	> 1000	> 1000
CC[C@H](C)[C@@H]([C@@H](CC(=O)N1CCC[C@H]1[C@H](OC)[C@@H](C)C(=O)N[C@H](CO)Cc1ccccc1)OC)N(C)C(=O)[C@@H](NC(=O)[C@@H]1COC(=O)N1)C(C)C [Example 40] (X5-V[Dil][Dolaproine][Phe(ol)])	12.3	60	442
CC[C@H](C)[C@@H]([C@@H](CC(=O)N1CCC[C@H]1[C@H](OC)[C@@H](C)C(=O)N[C@H](CO)Cc1ccccc1)OC)N(C)C(=O)[C@@H](NC(=O)C1CCOC(=O)N1)C(C)C (stereo partly drawn) [Example 41] (X7-V[Dil][Dolaproine][Phe(ol)])	15	62	457
CC[C@H](C)[C@@H]([C@@H](CC(=O)N1CCC[C@H]1[C@H](OC)[C@@H](C)C(=O)N[C@H](CO)Cc1ccccc1)OC)N(C)C(=O)[C@@H](NC(=O)[C@H]1NC(=O)O[C@@H]1C)C(C)C [Example 42] (X10-V[Dil][Dolaproine][Phe(ol)])	16	64	481
CC[C@H](C)[C@@H]([C@@H](CC(=O)N1CCC[C@H]1[C@H](OC)[C@@H](C)C(=O)N[C@H](CO)Cc1ccccc1)OC)N(C)C(=O)[C@@H](NC(=O)C1N(C)C(=O)OC1(C)C)C(C)C (stereo partly drawn) [Example 43] (X4-V[Dil][Dolaproine][Phe(ol)])	3.2	5.9	19
CC[C@H](C)[C@@H]([C@@H](CC(=O)N1CCC[C@H]1[C@H](OC)[C@@H](C)C(=O)N[C@H](CO)Cc1ccccc1)OC)N(C)C(=O)[C@@H](NC(=O)[C@@H](N)CNC(C)=O)C(C)C [Example 46] (H-[Dap](Ac)V[Dil][Dolaproine][Phe(ol)])	141	264	> 1000
CC[C@H](C)[C@@H]([C@@H](CC(=O)N1CCC[C@H]1[C@H](OC)[C@@H](C)C(=O)N[C@H](CO)Cc1ccccc1)OC)N(C)C(=O)[C@@H](NC(=O)[C@@H](N)CCS(C)(=O)=O)C(C)C [Example 47] (H-[Met(O2)]V[Dil][Dolaproine][Phe(ol)])	> 1000	> 1000	> 1000
CC[C@H](C)[C@@H]([C@@H](CC(=O)N1CCC[C@H]1[C@H](OC)[C@@H](C)C(=O)N[C@H](CO)Cc1ccccc1)OC)N(C)C(=O)[C@@H](NC(=O)[C@@H](N)CN[S+](C)[O-])C(C)C (stereo partly drawn) [Example 48] (H-[X11]V[Dil][Dolaproine][Phe(ol)])	41	110	> 1000
CC[C@H](C)[C@@H]([C@@H](CC(=O)N1CCC[C@H]1[C@H](OC)[C@@H](C)C(=O)N[C@H](CO)Cc1ccccc1)OC)N(C)C(=O)[C@@H](NC(=O)[C@@H]1C[C@@H](O)CN1)C(C)C [Example 49] (H-[Hyp]V[Dil][Dolaproine][Phe(ol)])	32	35	76
CC[C@H](C)[C@@H]([C@@H](CC(=O)N1CCC[C@H]1[C@H](OC)[C@@H](C)C(=O)N[C@H](CO)Cc1ccccc1)OC)N(C)C(=O)[C@@H](NC(=O)[C@@H](N)CNS(C)(=O)=O)C(C)C [Example 50] (H-[Dap](Ms)V[Dil][Dolaproine][Phe(ol)])	> 1000	> 1000	> 1000
CC[C@H](C)[C@@H]([C@@H](CC(=O)N1CCC[C@H]1[C@H](OC)[C@@H](C)C(=O)N[C@H](CO)Cc1ccccc1)OC)N(C)C(=O)[C@@H](NC(=O)[C@@H](N)CNC(=O)CO)C(C)C [Example 51] (H-[Dap](Glycolyl)V[Dil][Dolaproine][Phe(ol)])	93	224	> 1000
CC[C@H](C)[C@@H]([C@@H](CC(=O)N1CCC[C@H]1[C@H](OC)[C@@H](C)C(=O)NC(CO)Cc1nccs1)OC)N(C)C(=O)[C@@H](NC(=O)[C@H](CO)N(C)C)C(C)C (stereo partly drawn) [Example 52]	43	58	438
CC[C@H](C)[C@@H]([C@@H](CC(=O)N1CCC[C@H]1[C@H](OC)[C@@H](C)C(=O)NC(CO)Cn1ccnn1)OC)N(C)C(=O)[C@@H](NC(=O)[C@H](CO)N(C)C)C(C)C (stereo partly drawn) [Example 53]	> 1000	> 1000	> 1000
